Results as given in patent publication US7868047B2, “Anti-inflammatory and psoriasis treatment and protein kinase inhibition by hydroxy stilbenes and novel stilbene derivatives and analogues” (Welichem Biotech Inc., priority 1999, dated 2011).

What was measured:
DSS-induced IBD = test: DSS (2%) IBD mouse model, preventive experiment; type: in vivo; conditions: 500 mg/kg/day oral with 2% DSS, day 7
Description: To assess the in vivo efficacy for preventive and therapeutic activities of these compounds on IBD, two experiments were designed and tested using the dextran sulfate sodium (DSS) experimental mouse model for human IBD. For the preventive experiment, compounds 9A and 39B were simultaneously administrated orally with 2% DSS at the dose of 500 mg/kg/day. Vehicle alone and glucocorticoid (dexamethasone 20 mg/kg/day) were used as controls. At day 7, mice were sacrificed, examined for stool appearance, diarrhea and colon macroscopic damage including ulceration, inflammation and adhesion. Colon samples were also taken and fixed in 10% formalin for histological assessment of architecture, ulceration, inflammation and serosal damage.

TPA-induced ear edema = TPA-induced ear edema model; type: in vivo, mouse; conditions: 0.3% single topical, TPA 0.01%, ear thickness 6 hours after TPA
Description: Experiment: Three representative compounds, 5-(2-phenylethenyl)-2-1-propyl-1,3-benzenediol, as previously reported, a closely related stilbene derivative (WO 0142231) and compound 39B, a novel compound of the current invention, were assayed against the edema on female mice (Balb/c) aged 10-12 weeks, using 0.01% Calcitriol (a commercial standard) as a positive control. Phorbol-12-myristate-13-acetate (TPA) was used as the edema inducer. TPA and the test compounds were all dissolved in 100% ethanol and 20 μl applied on the right ear of the mouse with six mice per group. The TPA concentration used was 0.01% (w/v). Ear thickness was measured 6 hours after TPA treatment to determine if edema was decreased. In each experiment replicated groups of TPA treated mice were treated with either 5-(2-phenylethenyl)-2-1-propyl-1,3-benzenediol, Calcitriol, compound 39B or only ethanol, and the level of inhibition was obtained by measuring the thickness of the ear and expressing the difference in thickness of the treated ear from that of the ethanol treated ear, as a percentage.

eczema = test: 1% cream on volunteer with eczema; type: in vivo, human; conditions: topical, right side, control triamcinolone acetonide 0.5% left side
[1] = tested on: acute colon inflammation induced by 5% DSS; test: DSS (5%) acute colon inflammation mouse model, therapeutic experiment; type: in vivo; conditions: for Bleeding score / Diarrheal score: day seven, mean ± SEM, n = 9, 1 = normal; for Bleeding score: 2 = bloody stool, 4 = gross bleeding; for Diarrheal score: 2 = loose stools, 4 = diarrhea
Source text: To assess the in vivo efficacy for preventive and therapeutic activities of these compounds on IBD, two experiments were designed and tested using the dextran sulfate sodium (DSS) experimental mouse model for human IBD.
For the therapeutic experiment a further experiment was done to test different doses of 9A on severe, acute intestinal inflammation in mice induced by a high dose of DSS (5%). In this experiment, drug treatment started from day 3 post DSS induction when disease symptom was established. 9A (200 mg/kg or 100 mg/kg) was administered through oral […] once daily and a commercial drug, sulfasalazine (SASP, 100 mg/kg/day) was used as positive control. Experiment was terminated at day 7 and the efficacy was assessed.

psoriasis = test: 1% cream on volunteers with psoriasis; type: in vivo, human; conditions: topical, once per day, vs control cream
Description: The biological activity of the compounds of this invention can be determined by measurement of the effect of the test compound in vivo because there is no animal model suitable for the diseases. The compounds were tested on volunteers. In these tests, representative compound of this invention, i.e., 3,5-dihydroxy-4-isopropylstilbene is active in reducing or eliminating symptoms of psoriasis and eczema.
A 1% cream of 3,5-dihydroxy-4-isopropylstilbene was prepared for tests on volunteers. Three volunteers, each with a long psoriasis history, were recruited for the tests. Neither of them was on any medication a month before the initiation of the test.
Volunteer 1, person, with scalp psoriasis for more than 15 years. They had used various conventional drugs and treatments, include, steroids, phototherapy and other medicine during the course of their illness. All of these treatments had no or very limited effect on this psoriasis.
Volunteer 2, person, with plaques on their back. They had used hydrocortisone before and stopped using it because of side effects.
The volunteers were treated once per day by applying the creams once per day on top of the affected area with the basic cream as the control (except for volunteer 3). […] The cream of the invention contained 1% 3,5-dihydroxy-4-isopropylstilbene. The control cream was identical except that it contained no 3,5-dihydroxy-4-isopropylstilbene. […]

CC(C)c1c(O)cc(/C=C/c2ccccc2)cc1O [Compound 9A, 3,5-Dihydroxy-4-isopropyl-trans-stilbene]
macroscopic and microscopic diseases scores (DSS-induced IBD): significantly decreased
% edema inhibition (TPA-induced ear edema): 8%
effect on eczema, volunteer 3 (eczema): disease symptoms completely disappeared by week 2
Bleeding score ([1]; 100 mg/kg oral daily): 3.3 ± 0.37
Diarrheal score ([1]; 100 mg/kg oral daily): 2.0 ± 0.73
Bleeding score ([1]; 200 mg/kg oral daily): 3.2 ± 0.49
Diarrheal score ([1]; 200 mg/kg oral daily): 2.4 ± 0.45
survival rate vs control treatment ([1]; 5% DSS, treatment from day 3): significantly higher survival rate
survival rate ([1]; daily oral treatment from day 3 post 5% DSS, vehicle control 33%): 67%
effect on psoriasis, volunteer 1 (scalp psoriasis) (psoriasis): completely clearance in 7 days
effect on psoriasis, volunteer 2 (plaques on back) (psoriasis): significant improvement of the psoriasis
